Assay results reported in ChEMBL document CHEMBL1131974, “Asymmetric synthesis and antitumor activity of cycloalkanin” (1999).

What was measured:
[1] = tested on: P388; assay: In vitro cytotoxic activity against P388 tumor cell line by MTT assay at 48 hour at a concentration 10E-5 (M/L); assay type: functional, Mus musculus
[2] = tested on: A549; assay: In vitro cytotoxic activity against A549 tumor cell line by SRB assay at 72 hour at a concentration 10E-8 (M/L); assay type: functional, Homo sapiens
[3] = tested on: A549; assay: In vitro cytotoxic activity against A549 tumor cell line by SRB assay at 72 hour at a concentration 10E-7 (M/L); assay type: functional, Homo sapiens
[4] = tested on: P388; assay: In vitro cytotoxic activity against P388 tumor cell line by MTT assay at 48 hour at a concentration 10E-4 (M/L); assay type: functional, Mus musculus
[5] = tested on: P388; assay: In vitro cytotoxic activity against P388 tumor cell line by MTT assay at 48 hour at a concentration 10E-6 (M/L); assay type: functional, Mus musculus
[6] = tested on: P388; assay: In vitro cytotoxic activity against P388 tumor cell line by MTT assay at 48 hour at a concentration 10E-8 (M/L); assay type: functional, Mus musculus
[7] = tested on: P388; assay: In vitro cytotoxic activity against P388 tumor cell line by MTT assay at 48 hour at a concentration 10E-7 (M/L); assay type: functional, Mus musculus
[8] = tested on: A549; assay: In vitro cytotoxic activity against A549 tumor cell line by SRB assay at 72 hour at a concentration 10E-5 (M/L); assay type: functional, Homo sapiens
[9] = tested on: A549; assay: In vitro cytotoxic activity against A549 tumor cell line by SRB assay at 72 hour at a concentration 10E-4 (M/L); assay type: functional, Homo sapiens
[10] = tested on: A549; assay: In vitro cytotoxic activity against A549 tumor cell line by SRB assay at 72 hour at a concentration 10E-6 (M/L); assay type: functional, Homo sapiens

## CC1(C)CC[C@H](C2=CC(=O)c3c(O)ccc(O)c3C2=O)O1
[1]
  Inhibition: 98.9%
[2]
  Inhibition: 0%
[3]
  Inhibition: 14%
[4]
  Inhibition: 98.9%
[5]
  Inhibition: 98.9%
[6]
  Inhibition: 98.9%
[7]
  Inhibition: 98.9%
[8]
  Inhibition: 93.5%
[9]
  Inhibition: 92.5%
[10]
  Inhibition: 24.7%
